One assay concerns the target T1, CDK2 (Homo sapiens, UniProt P24941).
T1 construct: endogenous in cells; host or cells: MDA-MB-231
Description: CDK protein degradation activity (Western blotting), CDK2. It counts as cell-based. Conditions: MDA-MB-231 cells, 16 hours, Western blot. The gist of the method:
(§1)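 MDA-MB-231; cmpd 100 nM / 1 μM / 10 μM final vs DMSO, 16 h. Triton X-100 lysates (pH 7.5, phosphatase/protease inhibitors) → SDS-PAGE → Western blot, anti-CDK2, anti-CDK9, tubulin loading control; densitometry.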

The next assay deals with T2, CDK9 (Homo sapiens, UniProt P50750).
T2 construct: endogenous in cells; host or cells: MDA-MB-231
T2 sequence (P50750 whole entry): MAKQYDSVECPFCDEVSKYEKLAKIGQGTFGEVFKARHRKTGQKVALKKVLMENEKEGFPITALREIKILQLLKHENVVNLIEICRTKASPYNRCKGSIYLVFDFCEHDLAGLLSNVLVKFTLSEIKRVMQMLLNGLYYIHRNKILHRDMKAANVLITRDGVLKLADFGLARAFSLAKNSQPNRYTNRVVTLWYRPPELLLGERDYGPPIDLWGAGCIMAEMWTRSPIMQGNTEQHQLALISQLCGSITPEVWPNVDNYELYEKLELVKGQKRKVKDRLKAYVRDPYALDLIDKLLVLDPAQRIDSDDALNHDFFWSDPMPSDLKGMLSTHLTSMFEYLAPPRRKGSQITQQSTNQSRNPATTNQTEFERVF
Description: CDK protein degradation activity (Western blotting), CDK9. It counts as cell-based. The note with it: MDA-MB-231 cells, 16 hours, Western blot. The procedure, abridged: as §1

For the compound `O=C1CC[C@H](N2C(=O)c3ccc(NCC(=O)N4CC(N5CCC6(CC5)CC(N5CCN(c7ccc(Nc8ncnc9c8ncn9C8CC(NC(=O)Cc9ccccc9)C8)cc7)CC5)C6)C4)cc3C2=O)C(=O)N1` (stereo partly drawn) [Compound 278, N-((1s,3s)-3-(6-((4-(4-(7-(1-((2-(2,6-dioxopiperidin-3-yl)-1,3-dioxoisoindolin-5-yl)glycyl)azetidin-3-yl)-7-azaspiro[3.5]nonan-2-yl)piperazin-1-yl)phenyl)amino)-9H-purin-9-yl)cyclobutyl)-2-phenylacetamide], on CDK2, the “Enzyme degradation CDK2 (% remaining) @ 0.1 μM” value was 50/50/50%, the “Enzyme degradation CDK2 (% remaining) @ 1 μM” value is reported as 50/50/50% and the “Enzyme degradation CDK2 (% remaining) @ 10 μM” value is given as 50/50/50%. Also, on CDK9, the “Enzyme degradation CDK9 (% remaining) @ 0.1 μM” value is 10%, the “Enzyme degradation CDK9 (% remaining) @ 1 μM” value turned out to be 0% and the “Enzyme degradation CDK9 (% remaining) @ 10 μM” value was found to be 0%.
On to `Cc1cccc(C(=O)N[C@H]2C[C@@H](n3cnc4c(Nc5ccc(N6CCN(CC7CCN(c8ccc9c(c8)C(=O)N([C@H]8CCC(=O)NC8=O)C9=O)CC7)CC6)cc5)ncnc43)C2)n1` [Compound 88, N-((1s,3s)-3-(6-((4-(4-((1-(2-(2,6-dioxopiperidin-3-yl)-1,3-dioxoisoindolin-5-yl)piperidin-4-yl)methyl)piperazin-1-yl)phenyl)amino)-9H-purin-9-yl)cyclobutyl)-6-methylpicolinamide], for which, at CDK2, the “Enzyme degradation CDK2 (% remaining) @ 0.1 μM” value was 20/20/20%, the “Enzyme degradation CDK2 (% remaining) @ 1 μM” value was 20/20/20% and the “Enzyme degradation CDK2 (% remaining) @ 10 μM” value is 20/20/20%. For the same compound, on CDK9, the “Enzyme degradation CDK9 (% remaining) @ 0.1 μM” value is 0/0/0%, the “Enzyme degradation CDK9 (% remaining) @ 1 μM” value was 0/0/0% and the “Enzyme degradation CDK9 (% remaining) @ 10 μM” value is given as 0/0/0%.
For `O=C1CC[C@@H](c2ccc(OCC(=O)N3CCC(CN4CCC(c5ccc(Nc6ncnc7c6ncn7C6CC(NC(=O)Cc7ccccc7)C6)cc5)CC4)CC3)cc2)C(=O)N1` (stereo partly drawn) [Compound 281, N-((1s,3s)-3-(6-((4-(1-((1-(2-(4-(2,6-dioxopiperidin-3-yl)phenoxy)acetyl)piperidin-4-yl)methyl)piperidin-4-yl)phenyl)amino)-9H-purin-9-yl)cyclobutyl)-2-phenylacetamide], on CDK2, the “Enzyme degradation CDK2 (% remaining) @ 0.1 μM” value amounted to 30%, the “Enzyme degradation CDK2 (% remaining) @ 1 μM” value was found to be 50% and the “Enzyme degradation CDK2 (% remaining) @ 10 μM” value turned out to be 50%. Also, at CDK9, the “Enzyme degradation CDK9 (% remaining) @ 0.1 μM” value is reported as 0/0/0%, the “Enzyme degradation CDK9 (% remaining) @ 1 μM” value is listed as 0/0/0% and the “Enzyme degradation CDK9 (% remaining) @ 10 μM” value is on record as 0/0/0%.
Take `O=C1CCC(N2C(=O)c3ccc(N4CCN(CCCN5CCN(c6ccc(Nc7ncnc8c7ncn8[C@H]7C[C@@H](NC(=O)Cc8ccccc8)C7)cc6)CC5)CC4)cc3C2=O)C(=O)N1` (stereo partly drawn) [Compound 239, N-((1s,3s)-3-(6-((4-(4-(3-(4-(2-(2,6-dioxopiperidin-3-yl)-1,3-dioxoisoindolin-5-yl)piperazin-1-yl)propyl)piperazin-1-yl)phenyl)amino)-9H-purin-9-yl)cyclobutyl)-2-phenylacetamide]: at CDK2, the “Enzyme degradation CDK2 (% remaining) @ 0.1 μM” value stood at 100%, the “Enzyme degradation CDK2 (% remaining) @ 1 μM” value is recorded as 20% and the “Enzyme degradation CDK2 (% remaining) @ 10 μM” value was found to be 20%. On CDK9, the “Enzyme degradation CDK9 (% remaining) @ 0.1 μM” value was 70%, the “Enzyme degradation CDK9 (% remaining) @ 1 μM” value came out at 0% and the “Enzyme degradation CDK9 (% remaining) @ 10 μM” value amounted to 0%.
Turning to `Cc1cccc(C(=O)N[C@H]2C[C@@H](n3cnc4c(Nc5ccc(N6CCN(C7CC8(CCN(C(=O)C9CCN(c%10cc%11c(cc%10F)C(=O)N([C@H]%10CCC(=O)NC%10=O)C%11=O)CC9)CC8)C7)CC6)cc5)ncnc43)C2)n1` [Compound 465, N-((1s,3s)-3-(6-((4-(4-(7-(1-(2-(2,6-dioxopiperidin-3-yl)-6-fluoro-1,3-dioxoisoindolin-5-yl)piperidin-4-carbonyl)-7-azaspiro[3.5]nonan-2-yl)piperazin-1-yl)phenyl)amino)-9H-purin-9-yl)cyclobutyl)-6-methylpicolinamide], at CDK2, the “Enzyme degradation CDK2 (% remaining) @ 0.1 μM” value is 50/50/50%, the “Enzyme degradation CDK2 (% remaining) @ 1 μM” value was 50/50/50% and the “Enzyme degradation CDK2 (% remaining) @ 10 μM” value is reported as 50/50/50%. At CDK9, the “Enzyme degradation CDK9 (% remaining) @ 0.1 μM” value is recorded as 0/0/0%, the “Enzyme degradation CDK9 (% remaining) @ 1 μM” value is recorded as 0/0/0% and the “Enzyme degradation CDK9 (% remaining) @ 10 μM” value was 0/0/0%.
For `O=C1CC[C@H](N2C(=O)c3cc(F)c(N4CCC(C(=O)N5CCC(CN6CCN(c7ccc(Nc8ncnc9c8ncn9[C@H]8C[C@@H](NC(=O)c9c(Cl)cccc9Cl)C8)cc7)CC6)CC5)CC4)cc3C2=O)C(=O)N1` [Compound 462, 2,6-dichloro-N-((1s,3s)-3-(6-((4-(4-((1-(1-(2-(2,6-dioxopiperidin-3-yl)-6-fluoro-1,3-dioxoisoindolin-5-yl)piperidin-4-carbonyl)piperidin-4-yl)methyl)piperazin-1-yl)phenyl)amino)-9H-purin-9-yl)cyclobutyl)benzamide], on CDK2, the “Enzyme degradation CDK2 (% remaining) @ 0.1 μM” value came out at 30%, the “Enzyme degradation CDK2 (% remaining) @ 1 μM” value worked out at 20% and the “Enzyme degradation CDK2 (% remaining) @ 10 μM” value was 20%. Besides, at CDK9, the “Enzyme degradation CDK9 (% remaining) @ 0.1 μM” value was 0/0/0%, the “Enzyme degradation CDK9 (% remaining) @ 1 μM” value is 0/0/0% and the “Enzyme degradation CDK9 (% remaining) @ 10 μM” value is on record as 0/0/0%.
With `O=C1CC[C@H](N2C(=O)c3cccc(OCC(=O)N4CCC(CC(=O)N5CCN(c6ccc(Nc7ncnc8c7ncn8C7CC(NC(=O)Cc8ccccc8)C7)cc6)CC5)CC4)c3C2=O)C(=O)N1` (stereo partly drawn) [Compound 212, N-((1s,3s)-3-(6-((4-(4-(2-(1-(2-((2-(2,6-dioxopiperidin-3-yl)-1,3-dioxoisoindolin-4-yl)oxy)acetyl)piperidin-4-yl)acetyl)piperazin-1-yl)phenyl)amino)-9H-purin-9-yl)cyclobutyl)-2-phenylacetamide], on CDK2, the “Enzyme degradation CDK2 (% remaining) @ 0.1 μM” value was determined as 30%, the “Enzyme degradation CDK2 (% remaining) @ 1 μM” value was found to be 20% and the “Enzyme degradation CDK2 (% remaining) @ 10 μM” value stood at 10%. For the same compound, at CDK9, the “Enzyme degradation CDK9 (% remaining) @ 0.1 μM” value came to 70%, the “Enzyme degradation CDK9 (% remaining) @ 1 μM” value was found to be 30% and the “Enzyme degradation CDK9 (% remaining) @ 10 μM” value is given as 20%.
With `Cc1cccc(C(=O)N[C@H]2C[C@@H](n3cnc4c(NC5CCN(CCC6CCN(C(=O)CNc7ccc8c(c7)C(=O)N([C@H]7CCC(=O)NC7=O)C8=O)CC6)CC5)ncnc43)C2)n1` (racemic) [Compound 33, N-((1s,3s)-3-(6-((1-(2-(1-((2-(2,6-dioxopiperidin-3-yl)-1,3-dioxoisoindolin-5-yl)glycyl)piperidin-4-yl)ethyl)piperidin-4-yl)amino)-9H-purin-9-yl)cyclobutyl)-6-methylpicolinamide], on CDK2, the “Enzyme degradation CDK2 (% remaining) @ 0.1 μM” value is recorded as 40%, the “Enzyme degradation CDK2 (% remaining) @ 1 μM” value is listed as 30% and the “Enzyme degradation CDK2 (% remaining) @ 10 μM” value stood at 50%. Besides, on CDK9, the “Enzyme degradation CDK9 (% remaining) @ 0.1 μM” value was 0/0/0%, the “Enzyme degradation CDK9 (% remaining) @ 1 μM” value was 0/0/0% and the “Enzyme degradation CDK9 (% remaining) @ 10 μM” value was 0/0/0%.
Regarding `O=C1CC[C@@H](c2cccc(OCC(=O)N3CCC(CC(=O)N4CCN(c5ccc(Nc6ncnc7c6ncn7[C@H]6C[C@@H](NC(=O)Cc7ccccc7)C6)cc5)CC4)CC3)c2)C(=O)N1` [Compound 227, N-((1s,3s)-3-(6-((4-(4-(2-(1-(2-(3-(2,6-dioxopiperidin-3-yl)phenoxy)acetyl)piperidin-4-yl)acetyl)piperazin-1-yl)phenyl)amino)-9H-purin-9-yl)cyclobutyl)-2-phenylacetamide], at CDK2, the “Enzyme degradation CDK2 (% remaining) @ 0.1 μM” value came out at 50%, the “Enzyme degradation CDK2 (% remaining) @ 1 μM” value is 20% and the “Enzyme degradation CDK2 (% remaining) @ 10 μM” value is given as 70%. Further, at CDK9, the “Enzyme degradation CDK9 (% remaining) @ 0.1 μM” value came to 60%, the “Enzyme degradation CDK9 (% remaining) @ 1 μM” value was 70% and the “Enzyme degradation CDK9 (% remaining) @ 10 μM” value is reported as 10%.
With `O=C1CC[C@@H](c2cccc(OCC(=O)N3CCC(CCCN4CCN(c5ccc(Nc6ncnc7c6ncn7C6CC(NC(=O)Cc7ccccc7)C6)cc5)CC4)CC3)c2)C(=O)N1` (stereo partly drawn) [Compound 259, N-((1s,3s)-3-(6-((4-(4-(3-(1-(2-(3-(2,6-dioxopiperidin-3-yl)phenoxy)acetyl)piperidin-4-yl)propyl)piperazin-1-yl)phenyl)amino)-9H-purin-9-yl)cyclobutyl)-2-phenylacetamide], on CDK2, the “Enzyme degradation CDK2 (% remaining) @ 0.1 μM” value is on record as 0/0/0%, the “Enzyme degradation CDK2 (% remaining) @ 1 μM” value was 0/0/0% and the “Enzyme degradation CDK2 (% remaining) @ 10 μM” value was 0/0/0%. Further, at CDK9, the “Enzyme degradation CDK9 (% remaining) @ 0.1 μM” value is on record as 0/0/0%, the “Enzyme degradation CDK9 (% remaining) @ 1 μM” value is 0/0/0% and the “Enzyme degradation CDK9 (% remaining) @ 10 μM” value was 0/0/0%.
Turning to `O=C1CCC(N2C(=O)c3cccc(N4CCC(CN5CCC(CNc6ncnc7c6ncn7[C@H]6C[C@@H](NC(=O)Cc7ccccc7)C6)CC5)CC4)c3C2=O)C(=O)N1` (stereo partly drawn) [Compound 180, N-((1s,3s)-3-(6-(((1-((1-(2-(2,6-dioxopiperidin-3-yl)-1,3-dioxoisoindolin-4-yl)piperidin-4-yl)methyl)piperidin-4-yl)methyl)amino)-9H-purin-9-yl)cyclobutyl)-2-phenylacetamide], at CDK2, the “Enzyme degradation CDK2 (% remaining) @ 0.1 μM” value was 30/30/30%, the “Enzyme degradation CDK2 (% remaining) @ 1 μM” value is listed as 30/30/30% and the “Enzyme degradation CDK2 (% remaining) @ 10 μM” value is recorded as 30/30/30%. At CDK9, the “Enzyme degradation CDK9 (% remaining) @ 0.1 μM” value is listed as 20%, the “Enzyme degradation CDK9 (% remaining) @ 1 μM” value worked out at 80% and the “Enzyme degradation CDK9 (% remaining) @ 10 μM” value worked out at 0%.

The values are drawn from US20260125382A1, “COMPOUNDS FOR INHIBITING OR DEGRADING CDK2 AND/OR CDK9 AND MEDICINAL USE THEREOF” (KOREA RESEARCH INSTITUTE OF CHEMICAL TECHNOLOGY, priority 2022, published 2026).
